The values below come from US10457707B2, “Substituted urea depsipeptide analogs as activators of the CLPP endopeptidase” (priority 2015, dated 2019).

In brackets after ≈: the same amount, converted by molar mass. *1 amine or outer side, *2 acyl side, *3 side chain or, on linkers, in order; H or OH if unused. Where a SMILES comes first, the peptide text is derived from it. Bridges are numbered along the chain shown (N, C = ends). [ ]: non-standard residue; d: D form. The star is where a group is joined. ξ: configuration not given here. Phe(3,5-F2) = N[C@@H](Cc1cc(F)cc(F)c1)C(=O)O; NH(4-OCF3-phenyl) = FC(F)(F)Oc1ccc(N*)cc1; Pro(4S-Me) = C[C@@H]1CN[C@H](C(=O)O)C1; Pro(4R-Me) = C[C@H]1CN[C@H](C(=O)O)C1; ξPro(4R-OH) = O=C(O)C1C[C@@H](O)CN1; ξPro(4R-Me) = C[C@H]1CNC(C(=O)O)C1; NH(4-Et-phenyl) = CCc1ccc(N*)cc1; NMeT = CN[C@H](C(=O)O)[C@@H](C)O; NH(4-Me-phenyl) = Cc1ccc(N*)cc1; aThr = C[C@H](O)[C@H](N)C(=O)O; NMeA = CN[C@@H](C)C(=O)O; CO = O=C([*:1])[*:2]; ξP = O=C(O)C1CCCN1

This test has as its system Streptococcus pneumoniae, R6. Description: Minimal inhibitory concentration assay. The test is classed as cell-based. To be noted: read-out: Minimal Inhibitory Concentrations S. pneumoniae R6. The method, boiled down:
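Microbroth dilution with two-fold serial compound dilutions in broth, incubated aerobically overnight at 37° C. MIC taken as the lowest concentration preventing bacterial growth.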
As for `Cc1ccc(NC(=O)N[C@@H](Cc2cc(F)cc(F)c2)C(=O)N[C@@H]2C(=O)N3C[C@H](O)CC3C(=O)N(C)[C@@H](C)C(=O)N[C@@H](C)C(=O)N3C[C@H](C)CC3C(=O)O[C@H]2C)cc1` (stereo partly drawn) [Compound 31, (S)-3-(3,5-difluorophenyl)-N-((2S,6S,9S,11aS,13R,17S,18S,20aS)-13-hydroxy-2,6,9,10,18-pentamethyl-5,8,11,16,20-pentaoxohexadecahydro-1H,5H,16H-dipyrrolo[2,1-c:2′,1′-l][1]oxa[4,7,10,13]tetraazacyclohexadecin-17-yl)-2-(3-(p-tolyl)ureido)propanamide] ({NH(4-Me-phenyl)-CO}-[Phe(3,5-F2)][aThr][ξPro(4R-OH)][NMeA]A[ξPro(4R-Me)]; ester 2-C), the MIC was determined as 0.195 µM (≈ 0.156 µg/mL).

Consider `Cc1ccc(NC(=O)N[C@@H](Cc2cc(F)cc(F)c2)C(=O)N[C@@H]2C(=O)N3CCC[C@H]3C(=O)N(C)[C@@H]([C@@H](C)O)C(=O)N[C@@H](C)C(=O)N3C[C@@H](C)C[C@H]3C(=O)O[C@H]2C)cc1` [Compound 35, (S)-3-(3,5-difluorophenyl)-N-((2S,6S,9S,11aS,17S,18S,20aS)-9-((R)-1-hydroxyethyl)-2,6,10,18-tetramethyl-5,8,11,16,20-pentaoxohexadecahydro-1H,5H,16H-dipyrrolo[2,1-c:2′,1′-l][1]oxa[4,7,10,13]tetraazacyclohexadecin-17-yl)-2-(3-(p-tolyl)ureido)propanamide] ({NH(4-Me-phenyl)-CO}-[Phe(3,5-F2)][aThr]P[NMeT]A[Pro(4S-Me)]; ester 2-C), for which the MIC came to 0.049 µM (≈ 0.0398 µg/mL). Next, `C[C@H]1C[C@H]2C(=O)O[C@@H](C)[C@H](NC(=O)[C@H](Cc3cc(F)cc(F)c3)NC(=O)Nc3ccc(OC(F)(F)F)cc3)C(=O)N3CCC[C@H]3C(=O)N(C)[C@@H]([C@@H](C)O)C(=O)N[C@@H](C)C(=O)N2C1` [Compound 36, (S)-3-(3,5-difluorophenyl)-N-((2S,6S,9S,11aS,17S,18S,20aS)-9-((R)-1-hydroxyethyl)-2,6,10,18-tetramethyl-5,8,11,16,20-pentaoxohexadecahydro-1H,5H,16H-dipyrrolo[2,1-c:2′,1′-l][1]oxa[4,7,10,13]tetraazacyclohexadecin-17-yl)-2-(3-(4-(trifluoromethoxy)phenyl)ureido)propanamide] ({NH(4-OCF3-phenyl)-CO}-[Phe(3,5-F2)][aThr]P[NMeT]A[Pro(4S-Me)]; ester 2-C): 0.024 µM (≈ 0.0212 µg/mL); `CCc1ccc(NC(=O)N[C@@H](Cc2cc(F)cc(F)c2)C(=O)N[C@@H]2C(=O)N3CCC[C@H]3C(=O)N(C)[C@@H]([C@@H](C)O)C(=O)N[C@@H](C)C(=O)N3C[C@@H](C)C[C@H]3C(=O)O[C@H]2C)cc1` [Compound 37, (S)-3-(3,5-difluorophenyl)-2-(3-(4-ethylphenyl)ureido)-N-((2S,6S,9S,11aS,17S,18S,20aS)-9-((R)-1-hydroxyethyl)-2,6,10,18-tetramethyl-5,8,11,16,20-pentaoxohexadecahydro-1H,5H,16H-dipyrrolo[2,1-c:2′,1′-l][1]oxa[4,7,10,13]tetraazacyclohexadecin-17-yl)propanamide] ({NH(4-Et-phenyl)-CO}-[Phe(3,5-F2)][aThr]P[NMeT]A[Pro(4S-Me)]; ester 2-C): 0.024 µM (≈ 0.0198 µg/mL); `Cc1ccc(NC(=O)N[C@@H](Cc2cc(F)cc(F)c2)C(=O)N[C@@H]2C(=O)N3CCC[C@H]3C(=O)N(C)[C@@H]([C@@H](C)O)C(=O)N[C@@H](C)C(=O)N3C[C@H](C)C[C@H]3C(=O)O[C@H]2C)cc1` [Compound 38, (S)-3-(3,5-difluorophenyl)-N-((2R,6S,9S,11aS,17S,18S,20aS)-9-((R)-1-hydroxyethyl)-2,6,10,18-tetramethyl-5,8,11,16,20-pentaoxohexadecahydro-1H,5H,16H-dipyrrolo[2,1-c:2′,1′-l][1]oxa[4,7,10,13]tetraazacyclohexadecin-17-yl)-2-(3-(p-tolyl)ureido)propanamide] ({NH(4-Me-phenyl)-CO}-[Phe(3,5-F2)][aThr]P[NMeT]A[Pro(4R-Me)]; ester 2-C): 0.02 µM (≈ 0.0162 µg/mL). As for `C[C@@H]1C[C@H]2C(=O)O[C@@H](C)[C@H](NC(=O)[C@H](Cc3cc(F)cc(F)c3)NC(=O)Nc3ccc(OC(F)(F)F)cc3)C(=O)N3CCC[C@H]3C(=O)N(C)[C@@H]([C@@H](C)O)C(=O)N[C@@H](C)C(=O)N2C1` [Compound 41, (S)-3-(3,5-difluorophenyl)-N-((2R,6S,9S,11aS,17S,18S,20aS)-9-((R)-1-hydroxyethyl)-2,6,10,18-tetramethyl-5,8,11,16,20-pentaoxohexadecahydro-1H,5H,16H-dipyrrolo[2,1-c:2′,1′-l][1]oxa[4,7,10,13]tetraazacyclohexadecin-17-yl)-2-(3-(4-(trifluoromethoxy)phenyl)ureido)propanamide] ({NH(4-OCF3-phenyl)-CO}-[Phe(3,5-F2)][aThr]P[NMeT]A[Pro(4R-Me)]; ester 2-C), the figure is 0.02 µM (≈ 0.0176 µg/mL); as for `CCc1ccc(NC(=O)N[C@@H](Cc2cc(F)cc(F)c2)C(=O)N[C@@H]2C(=O)N3CCC[C@H]3C(=O)N(C)[C@@H]([C@@H](C)O)C(=O)N[C@@H](C)C(=O)N3C[C@H](C)C[C@H]3C(=O)O[C@H]2C)cc1` [Compound 42, (S)-3-(3,5-difluorophenyl)-2-(3-(4-ethylphenyl)ureido)-N-((2R,6S,9S,11aS,17S,18S,20aS)-9-((R)-1-hydroxyethyl)-2,6,10,18-tetramethyl-5,8,11,16,20-pentaoxohexadecahydro-1H,5H,16H-dipyrrolo[2,1-c:2′,1′-l][1]oxa[4,7,10,13]tetraazacyclohexadecin-17-yl)propanamide] ({NH(4-Et-phenyl)-CO}-[Phe(3,5-F2)][aThr]P[NMeT]A[Pro(4R-Me)]; ester 2-C), 0.01 µM (≈ 0.00826 µg/mL). As for `C[C@@H]1C[C@H]2C(=O)OC[C@H](NC(=O)[C@H](Cc3cc(F)cc(F)c3)NC(=O)Nc3ccc4c(c3)OCO4)C(=O)N3CCC[C@H]3C(=O)N3CCCC[C@H]3C(=O)N[C@@H](C)C(=O)N2C1` [Compound 195, (S)-2-(3-(benzo[d][1,3]dioxol-5-yl)ureido)-3-(3,5-difluorophenyl)-N-((2R,6S,8aS,14aS,20S,23aS)-2,6-dimethyl-5,8,14,19,23-pentaoxooctadecahydro-1H,5H,14H,19H-pyrido[2,1-i]dipyrrolo[2,1-c:2′,1′-l][1]oxa[4,7,10,13]tetraazacyclohexadecin-20-yl)propanamide], the figure is 0.1 µM (≈ 0.0824 µg/mL). In the case of `C[C@@H]1C[C@H]2C(=O)OC[C@H](NC(=O)[C@H](Cc3ccccc3)NC(=O)Nc3ccc(OC(F)(F)F)cc3)C(=O)N3CCC[C@H]3C(=O)N3CCCC[C@H]3C(=O)N[C@@H](C)C(=O)N2C1` [Compound 205], the MIC turned out to be 0.2 µM (≈ 0.166 µg/mL).

With `C[C@@H]1NC(=O)[C@H](C)N(C)C(=O)[C@@H]2CCCN2C(=O)[C@@H](NC(=O)[C@H](Cc2ccccc2)NC(=O)Nc2ccc(OC(F)(F)F)cc2)COC(=O)C2CCCN2C1=O` (stereo partly drawn) [Compound 213, (2S)-3-phenyl-2-(3-(4-(trifluoromethoxy)phenyl)ureido)-N-((6S,9S,11aS,17S)-6,9,10-trimethyl-5,8,11,16,20-pentaoxohexadecahydro-1H,5H,16H-dipyrrolo[2,1-c:2′,1′-l][1]oxa[4,7,10,13]tetraazacyclohexadecin-17-yl)propanamide] ({NH(4-OCF3-phenyl)-CO}-FSP[NMeA]A[ξP]; ester 2-C), the MIC was under 0.2 µM.
